What follows are molecules tested on MHH-CALL-4 (assay: selective drug sensitivity score (sDSS, relative to normal bone marrow) (sDSS (score)); higher = more potent and effective on the cell line relative to normal bone marrow cells). Conditions: 72 h.
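Further: ALL cell lines in 384-well plates, five doses spanning 10,000-fold, each plate scaled between vehicle and 100 µmol/L benzalkonium chloride controls, sDSS an adapted area-under-curve metric.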

In order of rising “selective drug sensitivity score” value:
1. Cc1ncc(-c2ccnc(Nc3ccc(S(C)(=O)=O)cc3)n2)n1C(C)C [AZD-5438] (top concentration 10000 nM)  -6.86
2. CCN1CCN(Cc2ccc(Nc3ncc(F)c(-c4cc(F)c5nc(C)n(C(C)C)c5c4)n3)nc2)CC1 [Abemaciclib] (top concentration 2500 nM)  -1.76
3. N#CCNC(=O)c1ccc(-c2ccnc(Nc3ccc(N4CCOCC4)cc3)n2)cc1 [Momelotinib] (top concentration 10000 nM)  -1.12
4. Cc1cc(Nc2ncc(Cl)c(Nc3ccccc3S(=O)(=O)C(C)C)n2)c(OC(C)C)cc1C1CCNCC1 [Ceritinib] (top concentration 2500 nM)  -0.74
5. NC[C@@](O)(c1ccc(Cl)cc1)c1ccc(-c2cn[nH]c2)cc1 (top concentration 10000 nM)  1.78
6. Nc1cccc2c1CN(C1CCC(=O)NC1=O)C2=O (stereo not given) [Lenalidomide] (top concentration 100000 nM)  5.42
7. CNCc1ccc(-c2[nH]c3cc(F)cc4c3c2CCNC4=O)cc1 [Rucaparib] (top concentration 10000 nM)  5.92
8. Cn1c(Nc2ccc(C(F)(F)F)cc2)nc2cc(Oc3ccnc(-c4ncc(C(F)(F)F)[nH]4)c3)ccc21 [NVP-RAF265] (top concentration 1000 nM)  7.48
9. O=C(CCCCCCC(=O)Nc1ccc([C@H]2O[C@@H](CSc3nc(-c4ccccc4)c(-c4ccccc4)o3)C[C@@H](c3ccc(CO)cc3)O2)cc1)NO [Tubacin] (top concentration 10000 nM)  7.84

The molecules below were run on KARPAS-45 in the same assay as above. Conditions: 72 h.

In order of rising “selective drug sensitivity score” value:
1. CCN1CCN(Cc2ccc(Nc3ncc(F)c(-c4cc(F)c5nc(C)n(C(C)C)c5c4)n3)nc2)CC1 [Abemaciclib] (top concentration 2500 nM)  -4.66
2. Cc1cc(Nc2ncc(Cl)c(Nc3ccccc3S(=O)(=O)C(C)C)n2)c(OC(C)C)cc1C1CCNCC1 [Ceritinib] (top concentration 2500 nM)  -2.54
3. Nc1cccc2c1CN(C1CCC(=O)NC1=O)C2=O (stereo not given) [Lenalidomide] (top concentration 100000 nM)  -2.28
4. C=C(c1ccc(C(=O)O)cc1)c1cc2c(cc1C)C(C)(C)CCC2(C)C [Bexarotene] (top concentration 10000 nM)  -1.8
5. Cc1cn(-c2cc(NC(=O)c3ccc(C)c(Nc4nccc(-c5cnccn5)n4)c3)cc(C(F)(F)F)c2)cn1 [Radotinib] (top concentration 10000 nM)  0
6. N#CCNC(=O)c1ccc(-c2ccnc(Nc3ccc(N4CCOCC4)cc3)n2)cc1 [Momelotinib] (top concentration 10000 nM)  0.18
7. CNCc1ccc(-c2[nH]c3cc(F)cc4c3c2CCNC4=O)cc1 [Rucaparib] (top concentration 10000 nM)  0.72
8. CC1(COc2ccc3c(c2)ncn3-c2ccc3cccc(N4CCC(N)CC4)c3n2)COC1 [Crenolanib] (top concentration 10000 nM)  1.28
9. CC[C@H](Nc1ncnc2[nH]cnc12)c1nc2cccc(F)c2c(=O)n1-c1ccccc1 [Idelalisib] (top concentration 10000 nM)  1.54
10. Cc1ncc(-c2ccnc(Nc3ccc(S(C)(=O)=O)cc3)n2)n1C(C)C [AZD-5438] (top concentration 10000 nM)  2.64
11. O=C(Nc1cc(Oc2cc(F)c(NC(=O)C3(C(=O)Nc4ccc(F)cc4)CC3)cc2F)ccn1)C1CC1 [Altiratinib] (top concentration 10000 nM)  2.74
12. NC[C@@](O)(c1ccc(Cl)cc1)c1ccc(-c2cn[nH]c2)cc1 (top concentration 10000 nM)  2.78
13. COc1ccccc1S(=O)(=O)Nc1ccc2c(c1)CN(C)C(=O)N2 [PFI-1] (top concentration 30000 nM)  3.1
14. O=C(CCCCCCC(=O)Nc1ccc([C@H]2O[C@@H](CSc3nc(-c4ccccc4)c(-c4ccccc4)o3)C[C@@H](c3ccc(CO)cc3)O2)cc1)NO [Tubacin] (top concentration 10000 nM)  5.04
15. Cc1noc2c1-c1ccccc1C(c1ccc(Cl)cc1)=N[C@H]2CC(N)=O [CPI-0610] (top concentration 10000 nM)  6.7
16. O=C(Nc1ccncc1)C(=O)c1cn(Cc2ccc(Cl)cc2)c2ccccc12 [Indibulin] (top concentration 10000 nM)  6.84
17. Cn1c(Nc2ccc(C(F)(F)F)cc2)nc2cc(Oc3ccnc(-c4ncc(C(F)(F)F)[nH]4)c3)ccc21 [NVP-RAF265] (top concentration 1000 nM)  7.68
18. Cn1cncc1[C@@](N)(c1ccc(Cl)cc1)c1ccc2c(c1)c(-c1cccc(Cl)c1)cc(=O)n2C [Tipifarnib] (top concentration 10000 nM)  25.4

Each molecule was assayed on COG-LL-332h in the same assay as above. Conditions: 72 h.

In order of falling “selective drug sensitivity score” value:
1. Cc1cn(-c2cc(NC(=O)c3ccc(C)c(Nc4nccc(-c5cnccn5)n4)c3)cc(C(F)(F)F)c2)cn1 [Radotinib] (top concentration 10000 nM)  19.6
2. O=C(CCCCCCC(=O)Nc1ccc([C@H]2O[C@@H](CSc3nc(-c4ccccc4)c(-c4ccccc4)o3)C[C@@H](c3ccc(CO)cc3)O2)cc1)NO [Tubacin] (top concentration 10000 nM)  14
3. Cn1cncc1[C@@](N)(c1ccc(Cl)cc1)c1ccc2c(c1)c(-c1cccc(Cl)c1)cc(=O)n2C [Tipifarnib] (top concentration 10000 nM)  9.3
4. O=C(Nc1ccncc1)C(=O)c1cn(Cc2ccc(Cl)cc2)c2ccccc12 [Indibulin] (top concentration 10000 nM)  6.34
5. O=C(Nc1cc(Oc2cc(F)c(NC(=O)C3(C(=O)Nc4ccc(F)cc4)CC3)cc2F)ccn1)C1CC1 [Altiratinib] (top concentration 10000 nM)  3.84
6. Cn1c(Nc2ccc(C(F)(F)F)cc2)nc2cc(Oc3ccnc(-c4ncc(C(F)(F)F)[nH]4)c3)ccc21 [NVP-RAF265] (top concentration 1000 nM)  3.28
7. NC[C@@](O)(c1ccc(Cl)cc1)c1ccc(-c2cn[nH]c2)cc1 (top concentration 10000 nM)  2.68
8. CNCc1ccc(-c2[nH]c3cc(F)cc4c3c2CCNC4=O)cc1 [Rucaparib] (top concentration 10000 nM)  1.52
9. Nc1cccc2c1CN(C1CCC(=O)NC1=O)C2=O (stereo not given) [Lenalidomide] (top concentration 100000 nM)  0.22
10. CC[C@H](Nc1ncnc2[nH]cnc12)c1nc2cccc(F)c2c(=O)n1-c1ccccc1 [Idelalisib] (top concentration 10000 nM)  0.04
11. Cc1ncc(-c2ccnc(Nc3ccc(S(C)(=O)=O)cc3)n2)n1C(C)C [AZD-5438] (top concentration 10000 nM)  -0.16
12. COc1ccccc1S(=O)(=O)Nc1ccc2c(c1)CN(C)C(=O)N2 [PFI-1] (top concentration 30000 nM)  -0.5
13. CC1(COc2ccc3c(c2)ncn3-c2ccc3cccc(N4CCC(N)CC4)c3n2)COC1 [Crenolanib] (top concentration 10000 nM)  -0.82
14. N#CCNC(=O)c1ccc(-c2ccnc(Nc3ccc(N4CCOCC4)cc3)n2)cc1 [Momelotinib] (top concentration 10000 nM)  -0.82
15. CCN1CCN(Cc2ccc(Nc3ncc(F)c(-c4cc(F)c5nc(C)n(C(C)C)c5c4)n3)nc2)CC1 [Abemaciclib] (top concentration 2500 nM)  -1.66
16. C=C(c1ccc(C(=O)O)cc1)c1cc2c(cc1C)C(C)(C)CCC2(C)C [Bexarotene] (top concentration 10000 nM)  -1.7
17. Cc1noc2c1-c1ccccc1C(c1ccc(Cl)cc1)=N[C@H]2CC(N)=O [CPI-0610] (top concentration 10000 nM)  -2.8
18. Cc1cc(Nc2ncc(Cl)c(Nc3ccccc3S(=O)(=O)C(C)C)n2)c(OC(C)C)cc1C1CCNCC1 [Ceritinib] (top concentration 2500 nM)  -3.44
